Here are results for 56 compounds from patent US4461907A, “Amino-substituted flavans useful as anti-viral agents” (priority 1978, dated 1984).

Like-named read-outs stand apart in the source and are kept apart here. Some results are limits rather than exact numbers.

One data set concerns rhinovirus serotype 1B. Put plainly: plaque reduction test. The format is cell-based. The settings on record: Enterovirus. From the text:
Plaque suppression is proportional to compound concentration.

Data set [1] deals with rhinoviruses. Put plainly: activity in tests (novel compounds).
The nature of a further data set: in vivo. The settings on record: mouse, po.
A further data set deals with viral hepatitis. The settings on record: Lancet;2;1153 (1977); cited from earlier work.
The subject of data set [2] is rhinoviruses. Put plainly: in vitro tests in culture.
Setting [3] is: rhinovirus serotype 1B, plaque reduction test, read-out: ED50 (the source's name).

Procedure for in vivo: Retro-orbital bleedings were performed at half, an hour, and 1 hour after administration of the dose, and hourly thereafter to 7 hours, and again at 24 hours. The plasma was harvested from these bleedings and was tested for antiviral activity using the plaque inhibition test described above. The total faeces of each mouse were collected after 24 hours and were macerated with a minimum of absolute alcohol, which liquid was then tested for antiviral activity by the plaque inhibition test. The gall bladders of the mice were removed and each was extracted with 10 μl of absolute alcohol, which extract was also tested by the plaque inhibition test.

With `Clc1ccc(C2CCc3ccccc3O2)c(Cl)c1` (stereo not drawn) [2',4'-dichloro-, 2',4'-Dichloro-flavan], the EC50 in the data set on rhinovirus serotype 1B (setting [3]) is 64 nM.
The same measure, in the same setting: to `Clc1cccc(Cl)c1C1CCc2ccccc2O1` (stereo not drawn) [2',6'-dichloro-, 2',6'-Dichloroflavan] belongs 48 nM.
Still for that read-out and setting: with `Clc1ccccc1C1CCc2ccccc2O1` (stereo not drawn) [2'-chloro-, 2'-chloroflavan] the figure was 112 nM; with `Oc1ccccc1C1CCc2ccccc2O1` (stereo not drawn) [2'-hydroxyl-, 2'-hydroxyflavan], 780 nM.
On the same count and under the same terms, to `Cc1ccccc1C1CCc2ccccc2O1` (stereo not drawn) [2'-methyl-, 2'-Methylflavan] belongs 15 nM.
On to `Cc1ccc2c(c1)CCC(c1ccc(Cl)c(Cl)c1)O2` (stereo not drawn) [3',4'-dichloro-6-methyl-, 3',4'-Dichloro-6-methylflavan], for which, in the data set with rhinovirus serotype 1B (setting [3]), the EC50 amounted to 17 nM. Besides, in the data set with rhinoviruses [1], the activity in tests result is “highest activity in tests”.
Turning to `Clc1ccc(C2CCc3ccccc3O2)cc1Cl` (stereo not drawn) [3',4'-dichloro-, 3',4'-Dichloro-flavan], in the data set on rhinovirus serotype 1B (setting [3]), the EC50 came to 40 nM.
Same read-out and setting: with `Clc1cccc(C2CCc3ccccc3O2)c1` (stereo not drawn) [3'-chloro-, 3'-chloroflavan] the figure was 270 nM; with `COc1cccc(C2CCc3ccccc3O2)c1` (stereo not drawn) [3'-methoxyl-, 3'-methoxyflavan], 125 nM; with `Cc1cccc(C2CCc3ccccc3O2)c1` (stereo not drawn) [3'-methyl-, 3'-methylflavan], 290 nM.
The same measure, in the same setting: with `FC(F)(F)c1cccc(C2CCc3ccccc3O2)c1` (stereo not drawn) [3'-trifluoromethyl, 3'-trifluoromethyl-flavan] the figure was 1400 nM.
As to `N#Cc1ccc(C2CCc3cc(C#N)ccc3O2)cc1` (stereo not drawn) [4',6-cyano, 4',6-dicyanoflavan], the EC50 with rhinovirus serotype 1B (setting [3]) is > 10 nM. The activity in tests result in the data set with rhinoviruses [1] was “highest activity in tests”.
For `Brc1ccc(C2CCc3cc(Br)ccc3O2)cc1` (stereo not drawn) [4',6-dibromo-, 4',6-dibromoflavan] the same measures were 8 nM and “highest activity in tests”.
`Clc1ccc(C2CCc3cc(Cl)ccc3O2)cc1` (stereo not drawn) [4',6-dichloro-, 4',6-Dichloroflavan]: the concentration at 1 h in “in vivo” (30 mg/kg) is 2 to 4 µM; in the data set “in vivo” (100 mg/kg), 10 µM.
Turning to `Fc1ccc(C2CCc3cc(F)ccc3O2)cc1` (stereo not drawn) [4',6-difluoro-, 4'-6-difluoro], the EC50 in the data set with rhinovirus serotype 1B (setting [3]) was 68 nM.
Same read-out and setting: with `Ic1ccc(C2CCc3cc(I)ccc3O2)cc1` (stereo not drawn) [4',6-diiodo-, 4',6-diiodo] the figure was 43 nM; with `Cc1ccc(C2CCc3cc(C)ccc3O2)cc1` (stereo not drawn) [4',6-dimethyl-, 4',6-Dimethylflavan], 42 nM; with `Clc1ccc(C2CCc3ccc(Cl)cc3O2)cc1` (stereo not drawn) [4',7-dichloro-, 4',7-Dichloroflavan], 48 nM.
For the compound `CN(C)c1ccc(C2CCc3ccccc3O2)cc1` (stereo not drawn) [4'-N,N--dimethylamino-, 4'-(N,N-dimethylamino)flavan], the EC50 in the data set on rhinovirus serotype 1B (setting [3]) worked out at 265 nM.
For the compound `CC(=O)Oc1ccc(C2CCc3ccccc3O2)cc1` (stereo not drawn) [4'-acetoxyl-], in the data set on rhinovirus serotype 1B (setting [3]), the EC50 came out at 67 nM.
Same read-out and setting: to `Nc1ccc(C2CCc3ccccc3O2)cc1` (stereo not drawn) [4'-amino-, 4'-aminoflavan] belongs 50 nM; to `Clc1ccc2c(c1)CCC(c1ccc(Br)cc1)O2` (stereo not drawn) [4'-bromo-6-chloro, 4'-bromo-6-chloro-flavan], 21 nM.
In the case of `Fc1ccc2c(c1)CCC(c1ccc(Br)cc1)O2` (stereo not drawn) [4'-bromo-6-fluoro-, 6-fluoro-4'-bromoflavan], in the data set with rhinovirus serotype 1B (setting [3]), the EC50 stood at 13 nM. The activity in tests result with rhinoviruses [1] was “highest activity in tests”.
Consider `Brc1ccc(C2CCc3cc(I)ccc3O2)cc1` (stereo not drawn) [4'-bromo-6-iodo], for which the EC50 in the data set with rhinovirus serotype 1B (setting [3]) stood at 76 nM.
The same measure, in the same setting: with `Brc1ccc(C2CCc3ccccc3O2)cc1` (stereo not drawn) [4'-bromo-, 4'-Bromoflavan] the figure was 36 nM.
Take `N#Cc1ccc2c(c1)CCC(c1ccc(Cl)cc1)O2` (stereo not drawn) [4'-chloro-6-cyano, 6-cyano-4'-chloroflavan]: the EC50 with rhinovirus serotype 1B (setting [3]) is 6 nM. In addition, the activity in tests entry in the data set on rhinoviruses [1] is reported as “highest activity in tests”.
Turning to `CCc1ccc2c(c1)CCC(c1ccc(Cl)cc1)O2` (stereo not drawn) [4'-chloro-6-ethyl-, 4'-chloro-6-ethyl-flavan], in the data set with rhinovirus serotype 1B (setting [3]), the EC50 is 52 nM.
With `Fc1ccc2c(c1)CCC(c1ccc(Cl)cc1)O2` (stereo not drawn) [4'-chloro-6-fluoro-, 6-fluoro-4'-chloroflavan], in the data set on rhinovirus serotype 1B (setting [3]), the EC50 turned out to be 15 nM. The activity in tests entry in the data set with rhinoviruses [1] is given as “highest activity in tests”.
The corresponding values for `Clc1ccc(C2CCc3cc(I)ccc3O2)cc1` (stereo not drawn) [4'-chloro-6-iodo-, 6-iodo-4'-chloroflavan] are 15 nM and “highest activity in tests”.
The corresponding values for `Cc1ccc2c(c1)OC(c1ccc(Cl)cc1)CC2` (stereo not drawn) [4'-chloro-7-methyl-, 4'-chloro-7-methyl-flavan] are 15.5 nM and “highest activity in tests”.
For the compound `Clc1ccc(C2CCc3ccccc3O2)cc1` (stereo not drawn) [4'-chloro-, 4'-chloroflavan], in the data set with rhinovirus serotype 1B (read-out: ED50), the EC50 amounted to 40 nM.
Take `Fc1ccc(C2CCc3cc(I)ccc3O2)cc1` (stereo not drawn) [4'-fluoro-6-iodo, 6-iodo-4'-fluoro]: the EC50 with rhinovirus serotype 1B (setting [3]) came to 28 nM.
As to `Fc1ccc(C2CCc3ccccc3O2)cc1` (stereo not drawn) [4'-fluoro-, 4'-flouroflavan], in the data set with rhinovirus serotype 1B (setting [3]), the EC50 worked out at 17.5 nM. Also, in the data set with rhinoviruses [1], the activity in tests result is “highest activity in tests”.
As for `Oc1ccc(C2CCc3ccccc3O2)cc1` (stereo not drawn) [4'-hydroxy-, 4'-hydroxyflavan], in the data set with rhinovirus serotype 1B (setting [3]), the EC50 stood at 60 nM.
Consider `COc1ccc(C2CCc3cc(Cl)ccc3O2)cc1` (stereo not drawn) [4'-methoxyl-6-chloro-, 6-Chloro-4'-methoxy-flavan], for which the EC50 in the data set with rhinovirus serotype 1B (setting [3]) came to 13 nM. The activity in tests entry in the data set on rhinoviruses [1] is reported as “highest activity in tests”.
Regarding `COc1ccc(C2CCc3cc(C)ccc3O2)cc1` (stereo not drawn) [4'-methoxyl-6-methyl-, 4'-Methoxy-6-methyl-flavan], in the data set with rhinovirus serotype 1B (setting [3]), the EC50 was determined as 100 nM.
The same measure, in the same setting: with `COc1ccc(C2CCc3ccccc3O2)cc1` (stereo not drawn) [4'-methoxyl-, 4'-methoxyflavan] the figure was 70 nM.
As for `Cc1ccc(C2CCc3cc(Cl)ccc3O2)cc1` (stereo not drawn) [4'-methyl-6-chloro-, 6-Chloro-4'-methyl-flavan], the EC50 in the data set on rhinovirus serotype 1B (setting [3]) amounted to 2.3 nM. Also, in the data set on rhinoviruses [1], the activity in tests result is “highest activity in tests”.
`Cc1ccc(C2CCc3ccc(Cl)cc3O2)cc1` (stereo not drawn) [4'-methyl-7-chloro-, 7-Chloro-4'-methyl-flavan]: in the data set with rhinovirus serotype 1B (setting [3]), the EC50 came out at 83 nM.
As to `Cc1ccc(C2CCc3ccccc3O2)cc1` (stereo not drawn) [4'-methyl-, 4'-methylflavan], in the data set with rhinovirus serotype 1B (setting [3]), the EC50 stood at 12.5 nM. Besides, in the data set on rhinoviruses [1], the activity in tests entry is “highest activity in tests”.
As for `Clc1ccc(C2CCc3cc(Br)ccc3O2)cc1` (stereo not drawn) [6-bromo-4'-chloro-, 6-bromo-4'-chloro-flavan], the EC50 with rhinovirus serotype 1B (setting [3]) came to 5 nM.
Same read-out and setting: with `Fc1ccc(C2CCc3cc(Br)ccc3O2)cc1` (stereo not drawn) [6-bromo-4'-fluoro] the figure was 29 nM; with `Brc1ccc2c(c1)CCC(c1ccc(I)cc1)O2` (stereo not drawn) [6-bromo-4'-iodo-, 6-bromo-4'-iodo], 21 nM.
Still for that read-out and setting: to `Cc1ccc(C2CCc3cc(Br)ccc3O2)cc1` (stereo not drawn) [6-bromo-4'-methyl-, 6-bromo-4'-methylflavan] belongs 18 nM.
In the case of `Fc1ccc(C2CCc3cc(Cl)ccc3O2)cc1` (stereo not drawn) [6-chloro-4'-fluoro, 6-chloro-4'-fluoro-flavan], the EC50 in the data set with rhinovirus serotype 1B (setting [3]) came out at 16 nM. In addition, in the data set on rhinoviruses [1], the activity in tests result is listed as “highest activity in tests”.
Take `CC(C)c1ccc(C2CCc3cc(Cl)ccc3O2)cc1` (stereo not drawn) [6-chloro-4-(1-methylethyl), 6-chloro 4'-isopropylflavan]: the EC50 in the data set with rhinovirus serotype 1B (setting [3]) turned out to be 36 nM.
Turning to `OC1Cc2ccccc2OC1c1ccccc1` (stereo not drawn) [-3-hydroxy flavan], in the data set on viral hepatitis, the “effect against viral hepatitis” value was “without success”.
For the compound `Brc1ccc2c(c1)CCC(c1ccccc1)O2` (stereo not drawn) [Example 6-bromo-, 6-bromo flavan], the EC50 in the data set on rhinovirus serotype 1B (setting [3]) turned out to be 19 nM.
Same read-out and setting: with `Clc1ccc2c(c1)CCC(c1ccccc1)O2` (stereo not drawn) [Example 6-chloro-, 6-chloroflavan] the figure was 50 nM; with `N#Cc1ccc2c(c1)CCC(c1ccccc1)O2` (stereo not drawn) [Example 6-cyano-, 6-cyano], 38 nM.
Still for that read-out and setting: to `Fc1ccc2c(c1)CCC(c1ccccc1)O2` (stereo not drawn) [Example 6-fluoro-, 6-fluoro flavan] belongs 20 nM.
Same read-out and setting: with `Ic1ccc2c(c1)CCC(c1ccccc1)O2` (stereo not drawn) [Example 6-iodo-, 6-iodo] the figure was 58 nM.
Consider `COc1ccc2c(c1)CCC(c1ccccc1)O2` (stereo not drawn) [Example 6-methoxyl-, 6-methoxyflavan], for which, in the data set on rhinovirus serotype 1B (setting [3]), the EC50 was 12.5 nM. Also, the activity in tests result with rhinoviruses [1] is given as “highest activity in tests”.
For `Cc1ccc2c(c1)CCC(c1ccccc1)O2` (stereo not drawn) [Example 6-methyl-, 6-methylflavan], the EC50 in the data set with rhinovirus serotype 1B (setting [3]) is 150 nM.
`Clc1ccc2c(c1)OC(c1ccccc1)CC2` (stereo not drawn) [Example 7-chloro-, 7-Chloroflavan]: the EC50 with rhinovirus serotype 1B (setting [3]) stood at 70 nM.
Consider `c1ccc(C2CCc3ccccc3O2)cc1` (stereo not drawn) [flavan, Flavan], for which the EC50 in the data set with rhinovirus serotype 1B (setting [3]) turned out to be 46 nM. Besides, the activity against rhinoviruses entry in the data set on rhinoviruses [2] is listed as “quite good activity against rhinoviruses”.
